One series can be described thus: in vitro. To be noted: human, mt-2 cells. The method, then:
Cell viability was determined by the metabolism of the tetrazolium dye, XTT, 3,3'-[1-[phenylamino)carbonyl]-3,4-tetrazolium]bis-(4-methoxy-6-nitrobenzene-sulfonic acid(Sigma)(Scudiero et al., Cancer Res. 48:4827-4833 (1988)). In this assay metabolically active cells transform the tetrazolium dye, XTT, to a soluble colored formazan product. Microtiter plates (96 wells) were seeded with 1×10^5 cells/well and graded concentrations of test compounds in RPMI 1640 plus 5% FCS. Cells (MT-2) were allowed to grow at 36° C. in the presence of compounds for 3 days. To each well was added 0.05 ml of 1 mg XTT/ml in phosphate buffered saline (PBS) containing 0.025 mM phenazine methosulfate. Plates were incubated an additional four hours at 36° C. and the A450 was determined. The absorption was proportional to the number of viable cells in the well. The concentration of compound which produced a 50% reduction in the number of viable cells was designated the TC50.
In order to determine how these combinations affect cell viability, a cytotoxicity assay was conducted on combinations of the two compounds over the range 0.3-100 μg/ml and the TC50 s calculated.

The conditions of series [1]: AZT treatment of HIV positive individuals; cited from earlier work.
Another series relates to HIV strains. To be noted: time of AZT treatment after which resistant strains observed; cited from earlier work.

Molecules are shown by their SMILES.

What is called CC50 is the concentration that lowers cell viability or growth by half. In the case of `Cc1cn([C@H]2C[C@H](N=[N+]=[N-])[C@@H](CO)O2)c(=O)[nH]c1=O` [AZT, 3'-azido-3'-deoxythymidine], the CC50 at 72 h in the series “in vitro” is > 100 µg/mL. The Toxicity result in series [1] was “frequently toxic, causing bone marrow suppression resulting in anemia, leukopenia and thrombocytopenia”. For the same molecule, in the series on HIV strains, the “AZT-resistant HIV strains observed” value was “six”.
